Measurements published in ChEMBL document CHEMBL1158995, “A novel perlactone from the Caribbean sponge Plakortis angulospiculatus” (J Nat Prod, 1991).
Active and inactive are the calls of the source. The rule behind the calls is not given here.

System: Candida albicans
Experiment: Antimicrobial activity against Candida albicans ATCC 32354
Assay type: functional, organism-based

## CC1=C(O)C(C)(CCCCCC(C)CCCCc2ccc(O)cc2)OOC1=O (stereo unspecified)
  Activity: inactive
